From PMC11012829 (International Journal of Nanomedicine, 2024)

Legend:
P-gp = settings: cited from earlier work
[1] = format: in vivo, male Sprague-Dawley rats; settings: oral, rats; for bioavailability after N-XBSD administration compared to the free drugs: same administration concentration

SMILES: OC[C@H]1O[C@@H](Oc2cc(O)cc(/C=C/c3ccc(O[C@@H]4O[C@H](CO)[C@@H](O)[C@H](O)[C@H]4O)cc3O)c2)[C@H](O)[C@@H](O)[C@@H]1O [Mulberroside A, mulberroside A]
- P-gp substrate (P-gp): substrates of P-gp
- mean AUC0-t increased in the N-XBSD group compared to the free drugs ([1]; N-XBSD vs free drugs): 122.73%
- bioavailability after N-XBSD administration compared to the free drugs [1]: significantly higher

SMILES: O=C1C[C@@H](c2ccc(O[C@@H]3O[C@H](CO)[C@@H](O)[C@H](O)[C@H]3O)cc2)Oc2cc(O)ccc21 [Liquiritin, liquiritin]
- P-gp substrate (P-gp): substrates of P-gp
- mean AUC0-t in the N-XBSD group versus free drugs group ([1]; p<0.05): significantly higher
- bioavailability after N-XBSD administration compared to the free drugs [1]: significantly higher
